The values below come from US20240335539A1, “MODULATION OF BCL-2 TO ENHANCE CHIMERIC ANTIGEN RECEPTOR CANCER IMMUNOTHERAPY EFFICACY” (The Trustees of the University of Pennsylvania, priority 2021, published 2024).

Data set [1] concerns CART19-BCL-2(WT). The data set is described as follows: Cytotoxicity of doxorubicin on CART cells, 24 hours. In kind it is cell-based, human. As to conditions: doxorubicin 300 and 1000 nM. From the text: FIGS. 26A-26H illustrate the finding that increased BCL-2 expression in T cells from CART apheretic products is associated with positive clinical outcomes in lymphoma patients at long term. FIG. 26A is a schematic description of the approach taken to investigate the relationship between the level of BCL-2 and CART's clinical response. RNA was extracted from T cells from apheretic products of 38 lymphoma patients who received CART19 immunotherapy (CTL019, i.e., tisagenleucleucel) in the clinical trial (NCT02030834). Next, BCL-2 mRNA expression was quantified via the nCounter analysis system (NanoString Technologies, Inc, Seattle, WA). FIG. 26B is a volcano plot showing differential gene expression in T cells based on best overall response (CR or NR). […] EGFR: Epidermal growth factor receptor.
Nevertheless, to further investigate the safety profile of this approach, whether CART19-BCL-2(WT) cells are still sensitive to conventional cytotoxic drugs such as chemotherapy (e.g., doxorubicin) was assessed. […] Furthermore, to enhance the safety profile of CART19-BCL-2(WT) cells, a CART suicide system (Paszkiewicz, et al., The Journal of clinical investigation 2016; 126(11):4262-72) was employed by expressing truncated EGFR into CART19-BCL-2(WT).

Data set [2] relates to NALM6. The data set is described as follows: Targeted pro-apoptotic small molecule screening with CART19 against NALM6, killing by luminescence at 48 hours. Conditions: drug 100 and 1000 nM with CART19.
Procedure: Killing of NALM6 cells was quantified at 48 hours by luminescence. Drug screening of pro-apoptotic small molecules was performed with two concentrations (100 and 1000 nM). […] Two concentrations of 29 drugs were used (100 nM and 1000 nM). Killing of NALM6 cells was assessed at 48 hours by luminescence. […] UTD: untransduced T cells; CART19: anti-CD19 CAR T cell; MCL: mantle cell lymphoma; E:T=ratio of effector to target; IAP: Inhibition of apoptosis protein.
CART19 and NALM6 (luciferase+) cells were seeded at a ratio of 0.08E:1T (i.e., 600 CART: 7000 NALM6) per well in 25 μl of growth medium (RPMI1640+10% FBS+1% Pen-strep+1% glutamine) of 384-well Corning 3570 microplate using a Multidrop™ Combi Reagent Dispenser (Thermo Scientific). Following cell seeding, drugs (50 nL) were transferred to assay plates using a 50 nL slotted pin tool (V&P Scientific) and a JANUS Automated Workstation (Perkin Elmer). Compounds/drugs were added to a final concentration of 1 μM in 0.2% DMSO. Columns 1 and 23 were treated with 0.2% DMSO (negative control). […] Luminescence was measured on an EnVision Xcite Multilabel Plate Reader (PerkinElmer), using the ultrasensitive luminescence measurement technology.
In order to screen pro-apoptotic small molecules that can enhance CART cell killing, a targeted screening assay was performed. […] Tumor killing was measured by luminescence at 48 hours.
The test system of data set [3] is tumor cells. As to conditions: Karlsson et al. 2013; Yang et al. 2020; cited from earlier work.
The test system of data set [4] is CART19. Briefly: AZD5991 CART cell toxicity, co-culture with irradiated NALM6 for 120 hours. The format is cell-based, human. As to conditions: 110-10000 nM, E:T 0.25:1. As for the experimental part: To quantify CART cell toxicity, CART19 was co-cultured with irradiated NALM6 in the presence of either vehicle (DMSO), venetoclax or AZD5991 for 120 hours. After co-culture, samples were stained with anti-CD3 antibody and anti-CAR19 idiotype antibody to distinguish between effector (T cells) and target cells (NALM6). Survival of CART cell were then measured by using flow cytometry. E:T ratio=0.25:1. Concentrations of venetoclax and AZD5991: 110 nM, 330 nM, 1100 nM, 3300 nM and 10000 nM. […] All data represent mean±SD. **P<0.005, *P<0.05. ns: not significant.
To investigate this hypothesis, the expansion and persistence of CART19 cells in the peripheral blood of NSG mice treated with CART19 plus venetoclax or CART19 alone was analyzed using flow cytometry. […] To test whether prolonged exposure to venetoclax leads to CART cell toxicity, an in vitro venetoclax toxicity assay was performed using CART cells manufactured from 8 different T cell donors. […] Of note, the level of toxicity to CART cells varied among the different T cell donors, likely due to different apoptotic priming statuses at baseline. […] In order to discern whether the reduced survival was due to increased apoptosis or reduction of proliferation, the caspase 3/7 activity in CART19 was assessed in the presence or absence of venetoclax. […]

The subject of data set [5] is MINO, Z-138, MAVER, OCI-Ly18, SU-DHL-4, NALM6, MOLM-14. Briefly: CART plus venetoclax or AZD5991 tumor killing, 48 hours. In kind it is cell-based. As to conditions: AZD5991 125 nM, with CART19 (CART33 for MOLM-14). The method, then:
To investigate whether inhibition of MCL-1, another key anti-apoptotic regulator, lead to enhancement of tumor killing, various B-cell malignant (luciferase+) cell lines were co-cultured with either vehicle (DMSO), venetoclax or AZD5991 in the presence of CART19 for 48 hours and change of luminescence intensity was measured to quantify the tumor killing. To test the combination effect of CART/drug in different tumor types, AML cell lines (luciferase positive MOLM-14) were co-cultured with CART33 in the presence of either venetoclax or AZD5991. Tumor killing (%) was calculated using the formula: (sample−maximal tumor growth)/(lysis control−maximal tumor growth)×100. MINO (Venetoclax: 1 nM, AZD5991: 125 nM), Z-138 (Venetoclax: 25 nM, AZD5991: 125 nM), MAVER (Venetoclax: 25 nM, AZD5991: 125 nM), OCI-Ly18 (Venetoclax: 10 nM, AZD5991: 125 nM), SU-DHL-4 (Venetoclax: 500 nM, AZD5991: 125 nM), NALM6 (Venetoclax: 500 nM, AZD5991: 125 nM), MOLM-14 (Venetoclax: 125 nM, AZD5991: 125 nM). […] CART19: anti-CD19 CAR T cell.
CART19 cells were co-cultured with either vehicle (DMSO) or venetoclax and cytotoxicity was measured at 48 hours. […] This effect was further confirmed using primary NHL cells (MCL) (FIG. 1D). […]

As for `COc1cccc2c1C(=O)c1c(O)c3c(c(O)c1C2=O)C[C@@](O)(C(=O)CO)C[C@@H]3O[C@H]1C[C@H](N)[C@H](O)[C@H](C)O1` [doxorubicin], the “Elimination of BCL-2-expressing CART cells” value in data set [1] is “fast and effective elimination of CART19-BCL-2(WT)”. For the compound `CC[C@H](NC(=O)[C@H](C)NC)C(=O)N1C[C@@H](O)C[C@H]1Cc1c(-c2[nH]c3cc(F)ccc3c2C[C@@H]2C[C@H](O)CN2C(=O)[C@H](CC)NC(=O)[C@H](C)NC)[nH]c2cc(F)ccc12` [birinapant], the “Enhancement of CART19 killing / CART cell cytotoxicity” value in data set [2] is listed as “increased CART cell cytotoxicity”. On to `CN(C)CC[C@H](CSc1ccccc1)Nc1ccc(S(=O)(=O)NC(=O)c2ccc(N3CCN(Cc4ccccc4-c4ccc(Cl)cc4)CC3)cc2)cc1[N+](=O)[O-]` [ABT737], for which the “CART-mediated tumor killing (literature)” value in data set [3] was “significant increase of CART-mediated tumor killing”.

As to `Cc1c2c(nn1C)CSCc1cc(n(C)n1)CSc1cc(c3ccccc3c1)OCCCc1c(C(=O)O)n(C)c3c-2c(Cl)ccc13` [AZD5991], the “CART cell toxicity (CART survival)” value in data set [4] is “induces severe CART cell toxicity”. Moreover, the “Enhancement of tumor killing in presence of CART” value in data set [5] is recorded as “venetoclax, but not AZD5991 (MCL-1 inhibitor), leads to enhancement of tumor killing”.
